Source: patent US7495018B2, “Substituted 1,3-thiazole compounds, their production and use” (Takeda Pharmaceutical Company Limited, priority 2000, dated 2009)

Assays:
human p38 MAP kinase = biological target: T1, human p38 MAP kinase (Homo sapiens, UniProt Q16539); assay: p38 MAP kinase inhibition, 32P incorporation into Myelin Basic Protein; type: biochemical; conditions: active type p38 MAP kinase, Myelin Basic Protein substrate, 60 minutes at 30° C.; read-out: IC50 (concentration inhibiting 50% of 32P incorporation into the acid insoluble fraction)
T1 construct: FLAG (N); made in house; host or cells: Sf-21 insect cells, co-infected with baculoviruses BAC-HP38 and BAC-caMKK3
T1 sequence (Q16539 whole entry): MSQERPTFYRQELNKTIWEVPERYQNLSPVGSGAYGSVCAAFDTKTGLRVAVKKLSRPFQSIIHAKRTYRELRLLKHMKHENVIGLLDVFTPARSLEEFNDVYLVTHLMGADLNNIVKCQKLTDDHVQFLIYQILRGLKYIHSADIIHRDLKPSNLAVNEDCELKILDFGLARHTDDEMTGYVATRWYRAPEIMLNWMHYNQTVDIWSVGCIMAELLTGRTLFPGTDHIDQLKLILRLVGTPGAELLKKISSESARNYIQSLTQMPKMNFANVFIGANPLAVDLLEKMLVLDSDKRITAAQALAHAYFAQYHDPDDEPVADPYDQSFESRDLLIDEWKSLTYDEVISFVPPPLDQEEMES
Description: (1) Cloning of Human p38 MAP Kinase Gene and Preparation of Recombinant Baculovirus
(3) Preparation of Active Type p38 MAP Kinase
Sf-21 cells were inoculated on 100 mL Sf-900II SF medium (GIBCOBRL) to give 1×10^6 cells/mL, then, cultured for 24 hours at 27° C. Each 0.2 mL of virus stocks BAC-HP38 and BAC-caMKK3 of the recombinant baculovirus were added, then, cultured for further 48 hours. Cells were separated from the culture solution by centrifugal separation (3000 rpm, 10 min.), then, washed with PBS twice. The cells were suspended in 10 mL of Lysis buffer (25 mM HEPES (pH7.5), 1% TritonX, 130 mM NaCl, 1 mM EDTA, 1 mM DTT, 25 mM β-glycerophosphate, […], 1 mM APMSF, 1 mM Sodium orthovanadate), then, treatment by Homogenizer (POLYTRON) for 2 minutes at 20000 rpm was performed twice to lyse the cells. […]
(4) To 37.5 μL of a reaction solution (25 mM HEPES (pH 7.5), 10 mM Magnesium Acetate) containing 260 ng of active type p38 MAP kinase and 1 μg of Myelin Basic Protein was added 2.5 μL of a sample compound dissolved in DMSO, then, the mixture was kept at 30° C. for 5 minutes. […] After drying for 60 minutes at 45° C., 40 μL of Microscint 0 (Packard Japan) was added, and radiation activity was measured by Top Counter (Packard Japan). […]

[1] = test system: TNF-α production in THP-1 cells; assay: Inhibitory activity of TNF-α production in LPS-stimulated THP-1 cells; type: cell-based; conditions: Homo sapiens, LPS 5 μg/mL, 4 hours, TNF-α by ELISA, read-out: IC50 (concentration inhibiting 50% of TNF-α production)
Description: Measurement of Inhibitory Activity of TNF-α Production
THP-1 cells cultured in a PRMI 1640 medium (Life Technologies, Inc., USA) containing 1% inactivated fetal bovine serum (Life Technologies, Inc.) and 10 mM HEPES (pH 7.5) were inoculated on a 96 well plate to give 1×10^5 cells/well, then, 1 μL of a sample compound dissolved in DMSO was added. After incubation for 1 hour at 37° C. in a CO2 incubator, LPS (Wako Pure Chemical Industries Ltd.) was added to give a final concentration of 5 μg/mL. After incubation for 4 hours at 37° C. in a CO2 incubator, the supernatant was obtained by centrifugal separation. The TNF-α concentration in the supernatant was measured by ELISA (R&D Systems, Quantikine Kit). The concentration (IC50 value) of a sample compound necessary for inhibiting 50% of TNF-α production was calculated by PRISM 2.01 (GraphPad Software).

## Cc1cccc(-c2nc(N(C)C(=O)c3ccc(C)nc3)sc2-c2ccnc(NC3CCCC3)c2)c1 [Example 46-4]
Human p38 MAP kinase
  IC50: 17 nM
[1]
  IC50: 82 nM
other
  melting point: 176 to 177 °C
